pEC50, pIC50: −log10 of the molar value.
Legend:
human GLP-1R receptor = target: T1, human GLP-1R receptor (Homo sapiens, UniProt P43220, L260F); assay: CHOK1 GLP-1R cAMP Assay; assay type: cell-based; conditions: CHO-K1 cell line stably expressing human GLP-1R (Leu260Phe variant); HTRF cAMP; agonist activity
T1 construct: expressed in transfected cells; host or cells: CHO-K1 (ATCC CCL-61)
Description: A cell line stably expressing the human GLP-1R receptor (NM_002062.5, including the naturally-occurring variant Leu260Phe) in a CHO-K1 (ATCC® CCL-61™) was used for assay.
GLP-1 receptor mediated agonist activity was determined in a cell-based assay measuring cyclic adenosine monophosphate (cAMP) levels in cells using Homogeneous Time-Resolved Fluorescence (HTRF) cAMP detection kit (CisBio catalog #62AM4PEC, cAMP Gs Dynamic range kit). The cAMP detection method is based on a competitive immunoassay, in which cAMP produced by the cells and cAMP labeled with the dye d2 compete for binding to a Europium-Cryptate-labeled anti-cAMP antibody. The specific HTRF signal is inversely proportional to the concentration of cAMP.
Compounds were added to individual well in 384 well-assay plates (Greiner #784076) using an Echo (LabCyte) dispenser from 10 mM stocks. Varying concentration of compounds were added to wells, and DMSO was used to normalize each well to a volume of 100 nL. A dose response curve of GLP-1(7-36)NH2 (Bachem H-6795) was included in each run. 5 μL of cAMP concentration response standards are applied in specified wells in the assay plates. Cryo-preserved cells are thawed and resuspended in assay buffer pre-heated to 37° C. (20 mM HEPES pH 7.4, 1× Hank's Balanced Salt Solution (HBSS, Life Technologies #14065) supplemented with 0.1% (w/v) bovine serum albumin (Sigma, A-7030). Cells were centrifuged at 250*g for 5 min at rt, and resuspended in room tempered assay buffer to a final density of 0.16*10^6 cell/mL, to deliver 800 cells/well. 5 μL of assay buffer with 1 mM 3-isobutyl-1-methylxanthin (IBMX; Sigma cat I-7018) was dispensed per well in assay plates using a multidrop combi (Thermo Scientific) subsequently 5 μL of cell suspension was distributed to relevant wells in the assay using a multidrop dispenser. Assay plates were incubated 20 min at rt.
Detection reagents, Europium-Cryptate-labeled anti-cAMP antibody and cAMP labeled with the dye d2, are diluted in lysis buffer, provided by the manufacturer. 5 μL of each detection reagent is supplemented to each assay well using a multidrop dispenser. Assay plates are incubated in the dark for at least one h. The HTRF signal is measured using the HTRF module (excitation: 337 nm, emission A: 665 nm and emission B: 620 nm) in Pherastar FSX (BMG Labtech).
Raw data were converted to pM cAMP using the cAMP standard curve included in each run.
Converted data were further analyzed in Genedata Screener (Genedata) and EC50 determinations were made from agonist dose-response curves analyzed with a curve fitting program using a 4-parameter logistic dose response equation (Equation y=A+((B−A)/1+((C/x)^D))) where A is no stimulation, B is full stimulation, C is the EC50 and D is the Hill slope). The percent effect was determined relative to a saturating concentration of a full GLP-1R agonist (GLP-1(7-36)NH2 has 100% effect in this assay setup).

GLP-1R = target: T2, GLP-1R (Homo sapiens, UniProt P43220); assay: EndoC cAMP Accumulation Assay; assay type: cell-based; conditions: EndoC-βH1 human pancreatic β cell line; HTRF cAMP accumulation
T2 construct: host or cells: EndoC-βH1 human pancreatic beta cell line
T2 sequence (P43220 24-463): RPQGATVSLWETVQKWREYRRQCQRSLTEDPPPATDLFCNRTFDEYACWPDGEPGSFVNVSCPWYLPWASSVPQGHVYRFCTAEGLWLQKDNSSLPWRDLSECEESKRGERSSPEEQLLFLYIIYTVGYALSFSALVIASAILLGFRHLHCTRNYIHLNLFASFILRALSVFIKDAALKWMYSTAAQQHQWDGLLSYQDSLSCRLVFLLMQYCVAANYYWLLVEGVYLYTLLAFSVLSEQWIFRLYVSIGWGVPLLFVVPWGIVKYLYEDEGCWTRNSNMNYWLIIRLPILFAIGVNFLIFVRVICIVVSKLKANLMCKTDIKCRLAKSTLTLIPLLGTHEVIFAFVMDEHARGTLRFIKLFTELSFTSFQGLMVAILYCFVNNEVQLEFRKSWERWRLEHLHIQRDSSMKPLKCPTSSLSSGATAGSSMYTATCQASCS
From the text: EndoC cAMP Accumulation Assay
A HTRF cAMP assay (cAMP Gs dynamic kit; CisoBio Cat #62AM4PEJ) was used to identify agonists of GLP-1R in a pancreatic insulinoma cell line (EndoC-⊕H1). […] EndoC-PHlcells have detectable GLP-1R messenger ribonucleic acid (mRNA) as detected by quantitative polymerase chain reaction (qPCR). […] The EndoC-PH1 cell line is a valid model of human beta cells and applicable for screenings to identify novel drug target candidates (Mol. Metab., 2018, 8, 144-157). CisBio HTRF cAMP kits are based on a competitive immunoassay using cryptate-labelled anti-cAMP antibody and d2-labeled cAMP. The detection kit is intended for the direct quantitative determination of cAMP. The specific signal (i.e. energy transfer) is inversely proportional to the concentration of cAMP in the standard or sample. Test compounds (10 mM in DMSO) were diluted into assay buffer (HBSS (Sigma #H8264) supplemented with 25 mM HEPES (Gibco #15630, pH 7.4), 0.1% BSA (Sigma #A3059) and 0.5 mM IBMX (Sigma #I7018) included fresh on the day of the assay) into 96 well U-bottom plates (Greiner #650201). Diluted compounds were transferred to ECHO source polypropylene plates (Labcyte #P-05525) and dose response curves were dispensed acoustically using ECHO 550 into black shallow-well u-bottom 384-well HTRF Assay Plates (Corning 4514).
Cryovials of EndoC-H1 (supplied at 1×10e^7 cells/vial) were used directly for screening. The cryovials and were removed from N2(l) and thawed rapidly in a 37° C. water bath. The cells were resuspended in assay buffer and centrifuged at 300 g for 5 min. Cells were resuspended in assay buffer at the appropriate concentration, typically at 12e5 cells per mL (3000 cells per well, dependent on cell batch) and 2.5 μL diluted cells were added to all wells of destination plate by Multidrop combi reagent dispenser (Thermofisher). The plates were incubated at rt for 30 min. The assay was stopped by adding 2.5 μL anti-cAMP cryptate solution to all wells and 2.5 μL cAMP-d2 solution (both diluted 1:20 in lysis buffer) to columns 1-22 by Combi drop. A volume of 2.5 μL cAMP-d2 solution was added to wells E23 to P24 and 2.5 μL lysis buffer added to wells A23 to D24 by multichannel pipette. The plates were incubated at rt for 1 h and read on an Envision plate reader using excitation wavelength of 320 mn and emission of 590 nm and 660 nm.
Raw data from Envision is converted to % DeltaF according to the manufacturer's instructions. Dose response curves are analysed via 4-Parameter Logistical Analysis and assay plate Z′ values obtained. Samples are graphed as percentage (%) activation plots compared to GIP (1-42, Bachem H-5645) with assay window defined by negative control as basal cell cAMP levels and positive control are defined by maximum GIP (82.5 nM) signal. GLP-1 (7-36 amide, Bachem H-6795) dose response curve was included on all plates.

[1] = target: T3, human phosphodiesterase-3A (Homo sapiens, UniProt Q14432); assay: PDE3 Assay; assay type: biochemical; conditions: human recombinant enzyme expressed in Sf9 cells; formation of 5′AMP from cAMP, SPA
T3 construct: host or cells: Sf9 (Spodoptera frugiperda)
T3 sequence (Q14432 whole entry): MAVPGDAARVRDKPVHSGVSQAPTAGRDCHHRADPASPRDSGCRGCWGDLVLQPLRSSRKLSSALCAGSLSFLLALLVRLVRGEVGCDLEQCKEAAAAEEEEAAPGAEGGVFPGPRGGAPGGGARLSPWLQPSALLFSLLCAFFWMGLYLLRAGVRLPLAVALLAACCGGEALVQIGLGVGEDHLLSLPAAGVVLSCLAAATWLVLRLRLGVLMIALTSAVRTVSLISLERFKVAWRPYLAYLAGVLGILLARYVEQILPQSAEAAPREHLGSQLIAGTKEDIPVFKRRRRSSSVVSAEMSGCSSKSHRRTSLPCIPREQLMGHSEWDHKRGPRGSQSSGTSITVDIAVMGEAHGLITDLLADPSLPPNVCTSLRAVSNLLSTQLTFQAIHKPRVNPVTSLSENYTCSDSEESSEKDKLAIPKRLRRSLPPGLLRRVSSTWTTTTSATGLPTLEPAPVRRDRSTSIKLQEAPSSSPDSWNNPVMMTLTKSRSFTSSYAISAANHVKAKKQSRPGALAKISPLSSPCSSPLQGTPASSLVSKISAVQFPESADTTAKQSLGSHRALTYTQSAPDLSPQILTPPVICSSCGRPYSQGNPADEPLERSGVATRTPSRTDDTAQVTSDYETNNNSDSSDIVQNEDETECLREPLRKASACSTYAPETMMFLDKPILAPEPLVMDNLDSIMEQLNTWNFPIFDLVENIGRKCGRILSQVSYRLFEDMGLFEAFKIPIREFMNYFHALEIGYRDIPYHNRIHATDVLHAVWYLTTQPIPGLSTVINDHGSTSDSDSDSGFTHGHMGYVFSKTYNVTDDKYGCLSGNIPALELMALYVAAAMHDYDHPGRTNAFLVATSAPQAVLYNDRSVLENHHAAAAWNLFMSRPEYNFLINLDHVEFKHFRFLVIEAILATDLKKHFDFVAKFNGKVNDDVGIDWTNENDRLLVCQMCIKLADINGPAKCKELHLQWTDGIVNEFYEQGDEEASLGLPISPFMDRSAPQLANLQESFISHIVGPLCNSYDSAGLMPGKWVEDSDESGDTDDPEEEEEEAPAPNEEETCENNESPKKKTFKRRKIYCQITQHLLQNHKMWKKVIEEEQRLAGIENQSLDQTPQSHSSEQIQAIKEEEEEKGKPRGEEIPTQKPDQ
Description: Evaluation of the effects of compounds on the activity of the human phosphodiesterase-3A is quantified by measuring the formation of 5′AMP from cAMP using a human recombinant enzyme expressed in a clonal isolate of Spodoptera frugiperda cells (Sf9) cells.
The test compound, reference compound or water (control) are added to a buffer containing 40 mM tris(hydroxymethyl)aminomethane (Tris)/HCl (pH 7.4) and 8 mM MgCl2, 450 nMcAMP and 0.25 μCi [^3H]cAMP.
Thereafter, the reaction is initiated by addition of the enzyme (about 1 U) and the mixture is incubated for 20 min at 22° C.
For basal control measurements, the enzyme is omitted from the reaction mixture.
Following incubation SPA beads are added. After 30 min at 22° C. under shaking, the amount of [^3H]5′AMP is quantified with a scintillation counter (Topcount, Packard).
The results are expressed as a percent inhibition of the control enzyme activity. The standard inhibitory reference compound is milrinone (CAS number 78415-72-2), which is tested in each experiment at several concentrations to obtain an inhibition curve from which its IC50 value is calculated.

T1 sequence (P43220 24-463 L260F): as the sequence (P43220 24-463) above, with L237F counted along it

pEC50 (human GLP-1R receptor)	pEC50 (GLP-1R)	pIC50 [1]	Compound
7.85	7.82	< 5.00	COc1cc(C(=O)O)cc2c1nc(CN1C[C@@H]3[C@H](C1)[C@H]3c1cccc3c1O[C@](C)(c1ccc(Cl)cc1F)O3)n2CC1CCO1 (relative stereo) [Example 2, 2-(((1R,5S,6R)-6-((R*)-2-(4-Chloro-2-fluorophenyl)-2-methylbenzo[d][1,3]dioxol-4-yl)-3-azabicyclo[3.1.0]hexan-3-yl)methyl)-4-methoxy-1-(((S)-oxetan-2-yl)methyl)-1H-benzo[d]imidazole-6-carboxylic acid]
		4.96	N#Cc1ccc(COc2cccc(C3CCN(Cc4nc5ccc(C(=O)O)cc5n4C[C@@H]4CCO4)CC3)n2)c(F)c1 [Ref Comp B, reference compound]
6.59	6.77		CC1(c2ccc(Cl)cn2)Oc2cccc([C@H]3[C@@H]4CN(Cc5nc6ccc(C(=O)O)cc6n5CC5CCO5)C[C@@H]43)c2O1 (stereo partly drawn) [Example 3, 2-(((1R,5S,6R)-6-(2-(5-Chloropyridin-2-yl)-2-methylbenzo[d][1,3]dioxol-4-yl)-3-azabicyclo[3.1.0]hexan-3-yl)methyl)-1-(((S)-oxetan-2-yl)methyl)-1H-benzo[d]imidazole-6-carboxylic acid]
8.09	8.39		CCn1cncc1Cn1c(CN2C[C@@H]3[C@H](C2)[C@H]3c2cccc3c2O[C@](C)(c2ccc(Cl)cn2)O3)nc2c(OC)cc(C(=O)O)cc21 (relative stereo) [Example 13, 2-((1R,5S,6s)-6-(R*)-2-(5-Chloropyridin-2-yl)-2-methylbenzo[d][1,3]dioxol-4-yl)-3-azabicyclo[3.1.0]hexan-3-yl)methyl)-1-((1-ethyl-1H-imidazol-5-yl)methyl)-4-methoxy-1H-benzo[d]imidazole-6-carboxylic acid]
6.74	7.16		CC1(c2ccc(Cl)cc2F)Oc2cccc([C@H]3[C@@H]4CN(Cc5nc6ccc(C(=O)O)cc6n5CC5CCO5)C[C@@H]43)c2O1 (stereo partly drawn) [Example 1, 2-(((1R,5S,6R)-6-(2-(4-Chloro-2-fluorophenyl)-2-methylbenzo[d][1,3]dioxol-4-yl)-3-azabicyclo[3.1.0]hexan-3-yl)methyl)-1-(((S)-oxetan-2-yl)methyl)-1H-benzo[d]imidazole-6-carboxylic acid]
7.51	7.72		COc1cc(C(=O)O)cc2c1nc(CN1C[C@@H]3[C@H](C1)[C@H]3c1c(F)ccc3c1OC(C)(c1ccc(Cl)cn1)O3)n2C[C@@H]1CCO1 (stereo partly drawn) [Example 6, 2-(((1R,5S,6R)-6-(2-(5-Chloropyridin-2-yl)-5-fluoro-2-methylbenzo[d][1,3]dioxol-4-yl)-3-azabicyclo[3.1.0]hexan-3-yl)methyl)-4-methoxy-1-(((S)-oxetan-2-yl)methyl)-1H-benzo[d]imidazole-6-carboxylic acid]

Compound	pEC50 (human GLP-1R receptor)	pEC50 (GLP-1R)	pIC50 [1]
2-(((1R,5S6R)-6-((R*)-2-(5-Chloropyridin-2-yl)-5-fluoro-2-methylbenzo[d][1,3]dioxol-4-yl)-3-azabicyclo[3.1.0]hexan-3-yl)methyl)-4-fluoro-1-(((S)-oxetan-2-yl)methyl)-1H-benzo[d]imidazole-6-carboxylic acid [Example 10a]	7.72	7.89	< 4.00
4-Chloro-2-(((1R,5S,6R)-6-((R*)-2-(5-chloropyridin-2-yl)-5-fluoro-2-methylbenzo[d][1,3]dioxol-4-yl)-3-azabicyclo[3.1.0]hexan-3-yl)methyl)-1-(((S)-oxetan-2-yl)methyl)-1H-benzo[d]imidazole-6-carboxylic acid [Example 8a]	6.82	6.55	
